According to PubChem BioAssay (NCI):
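Growth conditions: 96-well plates. Treatment: test compound, 48 hours, 5 concentrations. Analysis: linear interpolation between bracketing concentrations; unreached endpoints set to highest concentration. At the TGI there is no net growth.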

Key:
Test in all cases: NCI-60 cell line screen, 48 h
SNB-78 CNS = system: SNB-78 CNS
KM12 colon = system: KM12 colon
M19-MEL melanoma = system: M19-MEL melanoma
SF-268 CNS = system: SF-268 CNS
SR leukemia = system: SR leukemia
MALME-3M melanoma = system: MALME-3M melanoma
SF-295 CNS = system: SF-295 CNS
NCI-H226 lung = system: NCI-H226 lung
HOP-92 NSCLC = system: HOP-92 NSCLC
TK-10 renal = system: TK-10 renal
SK-MEL-2 melanoma = system: SK-MEL-2 melanoma
SK-MEL-28 melanoma = system: SK-MEL-28 melanoma
HOP-18 NSCLC = system: HOP-18 NSCLC
UO-31 renal = system: UO-31 renal
HL-60(TB) leukemia = system: HL-60(TB) leukemia
NCI-H23 lung = system: NCI-H23 lung
A498 renal = system: A498 renal
LOX IMVI melanoma = system: LOX IMVI melanoma
OVCAR-4 ovarian = system: OVCAR-4 ovarian
IGROV1 ovarian = system: IGROV1 ovarian
UACC-62 melanoma = system: UACC-62 melanoma
DLD-1 colon = system: DLD-1 colon
CAKI-1 renal = system: CAKI-1 renal
K-562 leukemia = system: K-562 leukemia
786-0 renal = system: 786-0 renal
OVCAR-8 ovarian = system: OVCAR-8 ovarian
MOLT-4 leukemia = system: MOLT-4 leukemia
EKVX NSCLC = system: EKVX NSCLC
SK-OV-3 ovarian = system: SK-OV-3 ovarian
SW-620 colon = system: SW-620 colon
M14 melanoma = system: M14 melanoma
HOP-62 NSCLC = system: HOP-62 NSCLC
SNB-19 CNS = system: SNB-19 CNS
UACC-257 melanoma = system: UACC-257 melanoma
SF-539 CNS = system: SF-539 CNS
HCC-2998 colon = system: HCC-2998 colon
A549 NSCLC = system: A549 NSCLC
RXF-631 renal = system: RXF-631 renal
SNB-75 CNS = system: SNB-75 CNS
NCI-H460 lung = system: NCI-H460 lung
LXFL 529 NSCLC = system: LXFL 529 NSCLC
ACHN renal = system: ACHN renal
HT29 colon = system: HT29 colon
U251 CNS = system: U251 CNS
CCRF-CEM leukemia = system: CCRF-CEM leukemia
KM20L2 colon = system: KM20L2 colon
HCT-116 colon = system: HCT-116 colon
HCT-15 colon = system: HCT-15 colon
SN12C renal = system: SN12C renal
NCI-H522 lung = system: NCI-H522 lung
DMS 273 small cell lung = system: DMS 273 small cell lung
COLO 205 colon = system: COLO 205 colon
RXF 393 renal = system: RXF 393 renal
DMS 114 small cell lung = system: DMS 114 small cell lung
OVCAR-3 ovarian = system: OVCAR-3 ovarian
RPMI-8226 leukemia = system: RPMI-8226 leukemia
SK-MEL-5 melanoma = system: SK-MEL-5 melanoma
OVCAR-5 ovarian = system: OVCAR-5 ovarian
PC-3 prostate = system: PC-3 prostate
BT-549 breast = system: BT-549 breast
T-47D breast = system: T-47D breast
MDA-N = system: MDA-N
MDA-MB-435 = system: MDA-MB-435
DU-145 prostate = system: DU-145 prostate
HS 578T breast = system: HS 578T breast
MCF7 breast = system: MCF7 breast
MDA-MB-231 breast = system: MDA-MB-231 breast
XF 498 CNS = system: XF 498 CNS
NCI/ADR-RES ovarian = system: NCI/ADR-RES ovarian

Work on `CCc1cccc(C)c1NC(=O)C(=O)CC(=O)c1ccc(Cl)s1` yielded a TGI (SNB-78 CNS) of over 100 µM, a TGI (KM12 colon) of over 100 µM and a TGI (M19-MEL melanoma) of over 100 µM. It also gave a TGI (SF-268 CNS) of over 100 µM, a TGI (SR leukemia) of over 100 µM and a TGI (MALME-3M melanoma) of over 100 µM. The TGI (SF-295 CNS) was over 100 µM, the TGI (NCI-H226 lung) was over 100 µM and the TGI (HOP-92 NSCLC) was over 100 µM. It also gave a TGI (TK-10 renal) of over 100 µM, a TGI (SK-MEL-2 melanoma) of over 100 µM and a TGI (SK-MEL-28 melanoma) of over 100 µM. The TGI (HOP-18 NSCLC) was over 100 µM, the TGI (UO-31 renal) was over 100 µM and the TGI (HL-60(TB) leukemia) was over 100 µM. The TGI (NCI-H23 lung) was over 100 µM, the TGI (A498 renal) was over 100 µM and the TGI (LOX IMVI melanoma) was over 100 µM. For the same molecule, the TGI (OVCAR-4 ovarian) was over 100 µM, the TGI (IGROV1 ovarian) was over 100 µM and the TGI (UACC-62 melanoma) was over 100 µM. The TGI (DLD-1 colon) was over 100 µM, the TGI (CAKI-1 renal) was over 100 µM and the TGI (K-562 leukemia) was over 100 µM. The TGI (786-0 renal) was over 100 µM, the TGI (OVCAR-8 ovarian) was over 100 µM and the TGI (MOLT-4 leukemia) was over 100 µM. The TGI (EKVX NSCLC) was over 100 µM, the TGI (SK-OV-3 ovarian) was over 100 µM and the TGI (SW-620 colon) was over 100 µM. The TGI (M14 melanoma) was over 100 µM, the TGI (HOP-62 NSCLC) was over 100 µM and the TGI (SNB-19 CNS) was over 100 µM. It also gave a TGI (UACC-257 melanoma) of over 100 µM, a TGI (SF-539 CNS) of over 100 µM and a TGI (HCC-2998 colon) of over 100 µM. For the same molecule, the TGI (A549 NSCLC) was over 100 µM, the TGI (RXF-631 renal) was over 100 µM and the TGI (SNB-75 CNS) was over 100 µM. The TGI (NCI-H460 lung) was over 100 µM, the TGI (LXFL 529 NSCLC) was over 100 µM and the TGI (ACHN renal) was over 100 µM. The TGI (HT29 colon) was over 100 µM, the TGI (U251 CNS) was over 100 µM and the TGI (CCRF-CEM leukemia) was over 100 µM. The TGI (KM20L2 colon) was over 100 µM, the TGI (HCT-116 colon) was over 100 µM and the TGI (HCT-15 colon) was over 100 µM. The TGI (SN12C renal) was over 100 µM.

Molecule `C[N+](C)(C)CC(=O)N/N=C(/C(=O)Nc1ccc(Br)cc1)C1C(=O)NC(=O)NC1=O` has a TGI (SNB-78 CNS) of over 100 µM, a TGI (KM12 colon) of over 100 µM and a TGI (M19-MEL melanoma) of over 100 µM. It also gave a TGI (SF-268 CNS) of over 100 µM, a TGI (SR leukemia) of over 100 µM and a TGI (NCI-H522 lung) of over 100 µM. For the same molecule, the TGI (MALME-3M melanoma) was over 100 µM, the TGI (SF-295 CNS) was over 100 µM and the TGI (NCI-H226 lung) was over 100 µM. The TGI (TK-10 renal) was over 100 µM, the TGI (DMS 273 small cell lung) was over 100 µM and the TGI (SK-MEL-2 melanoma) was over 100 µM. The TGI (SK-MEL-28 melanoma) was over 100 µM, the TGI (HOP-18 NSCLC) was over 100 µM and the TGI (UO-31 renal) was over 100 µM. The TGI (HL-60(TB) leukemia) was over 100 µM, the TGI (COLO 205 colon) was over 100 µM and the TGI (NCI-H23 lung) was over 100 µM. It also gave a TGI (RXF 393 renal) of over 100 µM, a TGI (DMS 114 small cell lung) of over 100 µM and a TGI (A498 renal) of over 100 µM. The TGI (LOX IMVI melanoma) was over 100 µM, the TGI (OVCAR-4 ovarian) was over 100 µM and the TGI (IGROV1 ovarian) was over 100 µM. For the same molecule, the TGI (UACC-62 melanoma) was over 100 µM, the TGI (DLD-1 colon) was over 100 µM and the TGI (CAKI-1 renal) was over 100 µM. It also gave a TGI (K-562 leukemia) of over 100 µM, a TGI (786-0 renal) of over 100 µM and a TGI (MOLT-4 leukemia) of over 100 µM. It also gave a TGI (OVCAR-3 ovarian) of over 100 µM, a TGI (EKVX NSCLC) of over 100 µM and a TGI (SK-OV-3 ovarian) of over 100 µM. The TGI (SW-620 colon) was over 100 µM, the TGI (M14 melanoma) was over 100 µM and the TGI (RPMI-8226 leukemia) was over 100 µM. It also gave a TGI (HOP-62 NSCLC) of over 100 µM, a TGI (SNB-19 CNS) of over 100 µM and a TGI (UACC-257 melanoma) of over 100 µM. For the same molecule, the TGI (SF-539 CNS) was over 100 µM, the TGI (HCC-2998 colon) was over 100 µM and the TGI (A549 NSCLC) was over 100 µM. It also gave a TGI (RXF-631 renal) of over 100 µM, a TGI (SK-MEL-5 melanoma) of over 100 µM and a TGI (SNB-75 CNS) of over 100 µM. The TGI (NCI-H460 lung) was over 100 µM, the TGI (LXFL 529 NSCLC) was over 100 µM and the TGI (ACHN renal) was over 100 µM. It also gave a TGI (HT29 colon) of over 100 µM, a TGI (OVCAR-5 ovarian) of over 100 µM and a TGI (U251 CNS) of over 100 µM. For the same molecule, the TGI (CCRF-CEM leukemia) was over 100 µM, the TGI (KM20L2 colon) was over 100 µM and the TGI (HCT-116 colon) was over 100 µM. For the same molecule, the TGI (HCT-15 colon) was over 100 µM and the TGI (SN12C renal) was over 100 µM.

`Nc1ccc(C(=O)N/C(=C\c2cccc([N+](=O)[O-])c2)c2nc3[nH]c(=S)[nH]c(=O)c3[nH]2)cc1` was tested, and the TGI (SNB-78 CNS) was over 100 µM, the TGI (KM12 colon) was over 100 µM and the TGI (M19-MEL melanoma) was over 100 µM. The TGI (SF-268 CNS) was over 100 µM, the TGI (SR leukemia) was over 100 µM and the TGI (NCI-H522 lung) was over 100 µM. The TGI (MALME-3M melanoma) was over 100 µM, the TGI (SF-295 CNS) was over 96.7 µM and the TGI (PC-3 prostate) was over 100 µM. It also gave a TGI (NCI-H226 lung) of over 96.7 µM, a TGI (HOP-92 NSCLC) of 64.9 µM and a TGI (TK-10 renal) of over 100 µM. It also gave a TGI (SK-MEL-2 melanoma) of over 100 µM, a TGI (SK-MEL-28 melanoma) of over 100 µM and a TGI (UO-31 renal) of over 100 µM. For the same molecule, the TGI (HL-60(TB) leukemia) was over 100 µM, the TGI (COLO 205 colon) was over 100 µM and the TGI (NCI-H23 lung) was over 100 µM. The TGI (RXF 393 renal) was 55.9 µM, the TGI (DMS 114 small cell lung) was over 100 µM and the TGI (A498 renal) was over 100 µM. It also gave a TGI (LOX IMVI melanoma) of over 100 µM, a TGI (OVCAR-4 ovarian) of over 100 µM and a TGI (IGROV1 ovarian) of over 100 µM. It also gave a TGI (UACC-62 melanoma) of over 56.2 µM, a TGI (DLD-1 colon) of over 100 µM and a TGI (CAKI-1 renal) of over 100 µM. The TGI (K-562 leukemia) was over 100 µM, the TGI (786-0 renal) was over 93.1 µM and the TGI (OVCAR-8 ovarian) was over 90.3 µM. It also gave a TGI (MOLT-4 leukemia) of over 56.2 µM, a TGI (OVCAR-3 ovarian) of over 100 µM and a TGI (BT-549 breast) of over 100 µM. It also gave a TGI (EKVX NSCLC) of over 100 µM, a TGI (T-47D breast) of over 89.5 µM and a TGI (SK-OV-3 ovarian) of 56.2 µM. For the same molecule, the TGI (SW-620 colon) was over 100 µM, the TGI (M14 melanoma) was over 100 µM and the TGI (RPMI-8226 leukemia) was over 100 µM. For the same molecule, the TGI (HOP-62 NSCLC) was 45.6 µM, the TGI (SNB-19 CNS) was over 93.1 µM and the TGI (MDA-N) was over 100 µM. For the same molecule, the TGI (MDA-MB-435) was over 100 µM, the TGI (UACC-257 melanoma) was over 100 µM and the TGI (SF-539 CNS) was 67 µM. The TGI (HCC-2998 colon) was over 100 µM, the TGI (A549 NSCLC) was over 100 µM and the TGI (RXF-631 renal) was over 100 µM. It also gave a TGI (SK-MEL-5 melanoma) of over 100 µM, a TGI (SNB-75 CNS) of 32.1 µM and a TGI (DU-145 prostate) of over 100 µM. It also gave a TGI (HS 578T breast) of over 91.2 µM, a TGI (NCI-H460 lung) of over 100 µM and a TGI (LXFL 529 NSCLC) of over 100 µM. It also gave a TGI (MCF7 breast) of over 100 µM, a TGI (ACHN renal) of over 100 µM and a TGI (HT29 colon) of over 100 µM. It also gave a TGI (OVCAR-5 ovarian) of over 100 µM, a TGI (MDA-MB-231 breast) of over 94.5 µM and a TGI (U251 CNS) of over 85.6 µM. It also gave a TGI (CCRF-CEM leukemia) of over 100 µM, a TGI (XF 498 CNS) of 34.3 µM and a TGI (KM20L2 colon) of over 100 µM. The TGI (HCT-116 colon) was over 100 µM, the TGI (HCT-15 colon) was over 100 µM and the TGI (NCI/ADR-RES ovarian) was over 100 µM. For the same molecule, the TGI (SN12C renal) was over 100 µM.
